Each compound was assayed against ROCK2 (Homo sapiens (Human), UniProt O75116) (assay: ROCK assay (LABCHIP 3000 peptide phosphorylation assay)). Details: 5 μM ATP, 1.5 μM peptide substrate, dose-response.
Format: biochemical
Method in brief: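 Rho kinase variants in 20 mM HEPES pH 7.5, 20 mM MgCl2, 0.015% Brij-35, 4 mM DTT, 5 μM ATP, 1.5 μM FITC-AHA-AKRRRLSSLRA-OH peptide; DMSO <2%. EDTA-stopped; phosphorylated/non-phosphorylated peptide separated by microfluidic LabChip readout. Dose-response inhibition curve-fitted to give IC50.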

Sequence of ROCK2 (O75116 whole entry, species assumed): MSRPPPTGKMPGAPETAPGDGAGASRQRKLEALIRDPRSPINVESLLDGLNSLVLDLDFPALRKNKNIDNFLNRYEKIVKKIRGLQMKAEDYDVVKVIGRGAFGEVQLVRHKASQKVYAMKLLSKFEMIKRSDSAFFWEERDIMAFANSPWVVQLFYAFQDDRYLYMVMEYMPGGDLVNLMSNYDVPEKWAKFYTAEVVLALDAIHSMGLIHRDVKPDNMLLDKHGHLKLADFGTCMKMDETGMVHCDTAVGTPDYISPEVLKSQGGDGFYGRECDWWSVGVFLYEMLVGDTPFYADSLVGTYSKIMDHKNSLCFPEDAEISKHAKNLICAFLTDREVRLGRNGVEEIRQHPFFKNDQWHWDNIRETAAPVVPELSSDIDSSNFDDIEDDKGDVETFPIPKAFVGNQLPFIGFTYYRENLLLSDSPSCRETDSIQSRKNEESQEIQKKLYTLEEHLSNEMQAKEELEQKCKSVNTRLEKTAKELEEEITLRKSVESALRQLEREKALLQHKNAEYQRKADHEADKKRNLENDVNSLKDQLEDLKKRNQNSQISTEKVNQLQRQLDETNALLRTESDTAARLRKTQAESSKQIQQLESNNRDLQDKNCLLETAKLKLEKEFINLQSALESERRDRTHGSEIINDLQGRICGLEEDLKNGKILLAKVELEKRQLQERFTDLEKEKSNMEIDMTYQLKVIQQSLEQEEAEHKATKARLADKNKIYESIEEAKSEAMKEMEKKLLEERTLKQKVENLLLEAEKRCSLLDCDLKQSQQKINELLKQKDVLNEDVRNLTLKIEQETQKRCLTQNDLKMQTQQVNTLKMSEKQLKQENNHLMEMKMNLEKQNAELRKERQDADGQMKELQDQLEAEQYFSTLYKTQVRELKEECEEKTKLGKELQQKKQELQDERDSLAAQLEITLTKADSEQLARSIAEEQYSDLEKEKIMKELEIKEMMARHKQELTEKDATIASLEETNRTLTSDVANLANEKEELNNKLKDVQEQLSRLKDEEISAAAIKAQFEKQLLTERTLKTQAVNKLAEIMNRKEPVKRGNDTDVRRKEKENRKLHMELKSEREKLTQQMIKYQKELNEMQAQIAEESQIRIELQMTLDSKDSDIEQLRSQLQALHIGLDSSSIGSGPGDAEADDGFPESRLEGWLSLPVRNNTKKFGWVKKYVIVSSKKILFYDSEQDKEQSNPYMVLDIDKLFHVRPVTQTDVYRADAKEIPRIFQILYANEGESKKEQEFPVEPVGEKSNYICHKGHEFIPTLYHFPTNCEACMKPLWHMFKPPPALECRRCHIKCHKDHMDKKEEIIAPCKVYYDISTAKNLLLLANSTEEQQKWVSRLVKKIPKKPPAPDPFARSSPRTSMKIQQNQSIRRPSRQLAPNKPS

Row | SMILES | IC50 [nM]
1 | Cc1sc(NC(=O)Cc2ccc(Oc3ncccc3C(N)=O)c(Cl)c2)nc1-c1ccccc1F [Example 080, 2-(2-chloro-4-(2-((4-(2-fluorophenyl)-5-methylthiazol-2-yl)amino)-2-oxoethyl)phenoxy) nicotinamide] | 15
2 | Cc1nc2sccn2c1-c1csc(NC(=O)Cc2ccc(Oc3ncccc3C(N)=O)c(Cl)c2)n1 [Example 081, 2-(2-chloro-4-(2-((4-(6-methylimidazo[2,1-b]thiazol-5-yl)thiazol-2-yl)amino)-2-oxoethyl)phenoxy) nicotinamide] | 59
3 | COc1cccn2nc(NC(=O)Cc3ccc(Oc4ncccc4C(N)=O)c(Cl)c3)nc12 [Example 082, 2-(2-chloro-4-(2-((8-methoxy-[1,2,4]triazolo[1,5-a]pyridin-2-yl)amino)-2-oxoethyl)phenoxy) nicotinamide] | 6
4 | COc1cccn2nc(NC(=O)Cc3ccc(Oc4ncccc4C(N)=O)cc3)nc12 [Example 083, 2-(4-(2-((8-methoxy-[1,2,4]triazolo[1,5-a]pyridin-2-yl)amino)-2-oxoethyl)phenoxy) nicotinamide] | 106
5 | CN1CCc2sc(NC(=O)Cc3ccc(Oc4ncccc4C(N)=O)c(F)c3)nc2C1 [Example 084, 2-(2-fluoro-4-(2-((5-methyl-4,5,6,7-tetrahydrothiazolo [4,5-c]pyridin-2-yl)amino)-2-oxoethyl)phenoxy) nicotinamide] | 947
6 | Cc1sc(NC(=O)Cc2ccc(Oc3ncccc3C(N)=O)c(F)c2)nc1-c1ccc(F)nc1 [Example 085, 2-(2-fluoro-4-(2-((4-(6-fluoropyridin-3-yl)-5-methylthiazol-2-yl)amino)-2-oxoethyl)phenoxy) nicotinamide] | 176
7 | Cc1sc(NC(=O)Cc2ccc(Oc3ncccc3C(N)=O)c(F)c2)nc1-c1ccnn1C [Example 086, 2-(2-fluoro-4-(2-((5-methyl-4-(1-methyl-1H-pyrazol-5-yl)thiazol-2-yl)amino)-2-oxoethyl)phenoxy) nicotinamide] | 137
8 | Cc1sc(NC(=O)Cc2ccc(Oc3ncccc3C(N)=O)c(F)c2)nc1-c1ccccn1 [Example 087, 2-(2-fluoro-4-(2-((5-methyl-4-(pyridin-2-yl)thiazol-2-yl)amino)-2-oxoethyl)phenoxy) nicotinamide] | 47
9 | Cc1cnc(NC(=O)Cc2ccc(Oc3ncccc3C(N)=O)c(F)c2)s1 [Example 088, 2-(2-fluoro-4-(2-((5-methylthiazol-2-yl)amino)-2-oxoethyl)phenoxy) nicotinamide] | 126
10 | Cc1nccc(-c2nc(NC(=O)Cc3ccc(Oc4ncccc4C(N)=O)c(F)c3)sc2C)n1 [Example 089, 2-(2-fluoro-4-(2-((5-methyl-4-(2-methylpyrimidin-4-yl)thiazol-2-yl)amino)-2-oxoethyl)phenoxy) nicotinamide] | 14
11 | NC(=O)c1cccnc1Oc1ccc(CC(=O)Nc2nnc(-c3cccnc3)s2)cc1F [Example 090, 2-(2-fluoro-4-(2-oxo-2-((5-(pyridin-3-yl)-1,3,4-thiadiazol-2-yl)amino)ethyl)phe-noxy)nicotinamide] | 419
12 | NC(=O)c1cccnc1Oc1ccc(CC(=O)Nc2nnc(C(F)(F)F)s2)cc1F [Example 091, 2-(2-fluoro-4-(2-oxo-2-((5-(trifluoromethyl)-1,3,4-thiadiazol-2-yl)amino)ethyl)phe-noxy)nicotinamide] | 874
13 | NC(=O)c1cccnc1Oc1ccc(CC(=O)Nc2nnc(C3CC3)s2)cc1F [Example 092, 2-(4-(2-((5-cyclopropyl-1,3,4-thiadiazol-2-yl)amino)-2-oxoethyl)-2-fluorophenoxy)nico-tinamide] | 361
14 | COc1ccc(Cc2nnc(NC(=O)Cc3ccc(Oc4ncccc4C(N)=O)c(F)c3)s2)cc1OC [Example 093, 2-(4-(2-((5-(3,4-dimethoxybenzyl)-1,3,4-thiadiazol-2-yl)amino)-2-oxoethyl)-2-fluorophenoxy)nico-tinamide] | 213
15 | COc1cccn2nc(NC(=O)Cc3ccc(Oc4ncccc4C(N)=O)c(F)c3)nc12 [Example 094, 2-(2-fluoro-4-(2-((8-methoxy-[1,2,4]triazolo[1,5-a]pyridin-2-yl)amino)-2-oxoethyl)phenoxy) nicotinamide] | 15
16 | CN1CCC(Oc2ccc(NC(=O)Cc3ccc(Oc4ncccc4C(N)=O)c(Cl)c3)cc2)CC1 [Example 095, 2-(2-chloro-4-(2-((4-((1-methylpiperidin-4-yl)oxy)phenyl)ami-no)-2-oxoethyl)phenoxy) nicotinamide] | 113
17 | Cc1cccc2nc(NC(=O)Cc3ccc(Oc4ncccc4C(N)=O)c(F)c3)nn12 [Example 096, 2-(2-fluoro-4-(2-((5-methyl-[1,2,4]triazolo[1,5-a]pyridin-2-yl)amino)-2-oxoethyl)phenoxy) nicotinamide] | 110
18 | NC(=O)c1cccnc1Oc1ccc(CC(=O)Nc2nnc(-c3ccncc3)s2)cc1F [Example 097, 2-(2-fluoro-4-(2-oxo-2-((5-(pyridin-4-yl)-1,3,4-thiadiazol-2-yl)amino)ethyl)phe-noxy)nicotinamide] | 336

Continued, values first:

Row | IC50 [nM] | SMILES
19 | 31 | Cc1nc(NC(=O)Cc2ccc(Oc3ncccc3C(N)=O)c(F)c2)sc1C [Example 098, 2-(4-(2-((4,5-dimethylthiazol-2-yl)amino)-2-oxoethyl)-2-fluorophenoxy)nico-tinamide]
20 | 583 | NC(=O)c1cccnc1Oc1ccc(CC(=O)Nc2ccn(CC(F)(F)F)n2)cc1F [Example 099, 2-(2-fluoro-4-(2-oxo-2-((1-(2,2,2-trifluoroethyl)-1H-pyrazol-3-yl)amino)ethyl)phe-noxy)nicotinamide]
21 | 191 | NC(=O)c1cccnc1Oc1ccc(CC(=O)Nc2ccn(-c3ccc(C(F)(F)F)cn3)n2)cc1F [Example 100, 2-(2-fluoro-4-(2-oxo-2-((1-(5-(trifluoromethyl)pyridin-2-yl)-1H-pyrazol-3-yl)amino)ethyl)phe-noxy)nicotinamide]
22 | 261 | NC(=O)c1cccnc1Oc1ccc(CC(=O)Nc2nc(C3CC3)ns2)cc1F [Example 101, 2-(4-(2-((3-cyclopropyl-1,2,4-thiadiazol-5-yl)amino)-2-oxoethyl)-2-fluorophenoxy)nico-tinamide]
23 | 12 | Cc1sc(NC(=O)Cc2ccc(Oc3ncccc3C(N)=O)c(Cl)c2)nc1-c1cccnc1F [Example 102, 2-(2-chloro-4-(2-((4-(2-fluoropyridin-3-yl)-5-methylthiazol-2-yl)amino)-2-oxoethyl)phenoxy) nicotinamide]
24 | 17 | Cc1sc(NC(=O)Cc2ccc(Oc3ncccc3C(N)=O)c(Cl)c2)nc1-c1ccc(F)nc1 [Example 103, 2-(2-chloro-4-(2-((4-(6-fluoropyridin-3-yl)-5-methylthiazol-2-yl)amino)-2-oxoethyl)phenoxy) nicotinamide]
25 | 7 | Cc1sc(NC(=O)Cc2ccc(Oc3ncccc3C(N)=O)c(Cl)c2)nc1-c1cnn(C)c1 [Example 104, 2-(2-chloro-4-(2-((5-methyl-4-(1-methyl-1H-pyrazol-4-yl)thiazol-2-yl)amino)-2-oxoethyl)phenoxy) nicotinamide]
26 | 15 | Cc1sc(NC(=O)Cc2ccc(Oc3ncccc3C(N)=O)c(Cl)c2)nc1-c1ccc(Cl)nc1 [Example 105, 2-(2-chloro-4-(2-((4-(6-chloropyridin-3-yl)-5-methylthiazol-2-yl)amino)-2-oxoethyl)phenoxy) nicotinamide]
27 | 262 | COc1ccc2c(c1)CCc1sc(NC(=O)C(C)c3ccc(Oc4ncccc4C(N)=O)cc3)nc1-2 (centres unmarked) [Example 106, 2-(4-(1-((7-methoxy-4,5-dihydronaphtho[1,2-d]thiazol-2-yl)amino)-1-oxopropan-2-yl)phenoxy)nicotinamide]
28 | 29 | CC(C)(O)COc1ccc2sc(NC(=O)Cc3ccc(Oc4ncccc4C(N)=O)cc3)nc2c1 [Example 107, 2-(4-(2-((5-(2-hydroxy-2-methylpropoxy)benzo[d]thiazol-2-yl)amino)-2-oxoethyl)phenoxy)nicotinamide]
29 | 40 | CC(C)(O)COc1ccc2c(c1)CCc1sc(NC(=O)Cc3ccc(Oc4ncccc4C(N)=O)cc3)nc1-2 [Example 108, 2-(4-(2-((7-(2-hydroxy-2-methylpropoxy)-4,5-dihydronaphtho[1,2-d]thiazol-2-yl)amino)-2-oxoethyl)phenoxy)nicotinamide]
30 | 74 | CC(C)(O)COc1ccc2nc(NC(=O)Cc3ccc(Oc4ncccc4C(N)=O)cc3)sc2c1 [Example 109, 2-(4-(2-((6-(2-hydroxy-2-methylpropoxy)benzo[d]thiazol-2-yl)amino)-2-oxoethyl)phenoxy)nicotinamide]
31 | 36 | CC(C)(O)COc1ccn2nc(NC(=O)Cc3ccc(Oc4ncccc4C(N)=O)c(F)c3)nc2c1 [Example 110, 2-(2-fluoro-4-(2-((7-(2-hydroxy-2-methylpropoxy)-[1,2,4]triazolo[1,5-a]pyridin-2-yl)amino)-2-oxoethyl)phenoxy)nicotinamide]
32 | 37 | NC(=O)c1cccnc1Oc1ccc(CC(=O)Nc2nc3ccccc3n2CC(F)F)cc1F [Example 111, 2-(4-(2-((1-(2,2-difluoroethyl)-1H-benzo[d]imidazol-2-yl)amino)-2-oxoethyl)-2-fluorophenoxy)nicotinamide]
33 | 6 | CC(C)(O)COc1ccc2sc(NC(=O)Cc3ccc(Oc4ncccc4C(N)=O)c(Cl)c3)nc2c1 [Example 112, 2-(2-chloro-4-(2-((5-(2-hydroxy-2-methylpropoxy)benzo[d]thiazol-2-yl)amino)-2-oxoethyl)phenoxy)nicotinamide]
34 | 58 | CC(C)(O)COc1ccc2c(c1)CCc1sc(NC(=O)Cc3ccc(Oc4ncccc4C(N)=O)c(Cl)c3)nc1-2 [Example 113, 2-(2-chloro-4-(2-((7-(2-hydroxy-2-methylpropoxy)-4,5-dihydronaphtho[1,2-d]thiazol-2-yl)amino)-2-oxoethyl)phenoxy)nicotinamide]
35 | 162 | CC(C)(O)COc1ccc2c(c1)N(C(=O)Cc1ccc(Oc3ncccc3C(N)=O)c(F)c1)CC2 [Example 114, 2-(2-fluoro-4-(2-(6-(2-hydroxy-2-methylpropoxy)indolin-1-yl)-2-oxoethyl)phenoxy)nicotinamide]

Reference: US11306081B2, “Phenylacetamides as inhibitors of rock” (BRISTOL-MYERS SQUIBB COMPANY, priority 2017, dated 2022)
